# Assay results published in the supplement of paper PMC10307832.
# Legend:
# Assay in all cases: relative viability (nuclei count vs DMSO), 5 days (fraction); higher = more cells survive
# Veliparib + Alpelisib = compound: C[C@]1(c2nc3c(C(N)=O)cccc3[nH]2)CCCN1 [Veliparib] + Cc1nc(NC(=O)N2CCC[C@H]2C(N)=O)sc1-c1ccnc(C(C)(C)C(F)(F)F)c1 [Alpelisib] (partner 2 µM)
# How it was run: (§1)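 The day after seeding in 1536-well plates, lung cancer cell lines were treated by pin tool with a single drug, or with a fixed anchor-drug dose together with five library-drug doses (not always all listed) in √10 steps. After 5 days, a combined fix-and-stain solution (final 0.05% Triton X-100, 1% formaldehyde, 1 ug/ml Hoechst) was added. Nuclei counted on 4× images gave relative viability as treated counts over vehicle counts, reported as the median of duplicate plates.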
# [1] = compound: COC1=CC=C(C=C1)CN2C=CC3=C2C=C(C=C3)C(=O)NO + CC(=O)c1c(C)c2cnc(Nc3ccc(N4CCNCC4)cn3)nc2n(C2CCCC2)c1=O [Palbociclib] (partner 0.5 µM)
# How it was run: as §1
# Veliparib + Decitabine = compound: C[C@]1(c2nc3c(C(N)=O)cccc3[nH]2)CCCN1 [Veliparib] + Nc1ncn([C@H]2C[C@H](O)[C@@H](CO)O2)c(=O)n1 [Decitabine] (partner 2 µM)
# How it was run: as §1
# [2] = compound: COC1=CC=C(C=C1)CN2C=CC3=C2C=C(C=C3)C(=O)NO + Nc1nc2[nH]cc(CCc3ccc(C(=O)N[C@@H](CCC(=O)O)C(=O)O)cc3)c2c(=O)[nH]1 [Pemetrexed] (partner 0.2 µM)
# How it was run: as §1
Cell Line,relative viability (Veliparib + Alpelisib; first compound 0.02 µM),relative viability (Veliparib + Alpelisib; first compound 0.06325 µM),relative viability (Veliparib + Alpelisib; first compound 0.2 µM),relative viability (Veliparib + Alpelisib; first compound 0.6325 µM),relative viability (Veliparib + Alpelisib; first compound 2 µM),relative viability ([1]; first compound 0.08 µM),relative viability ([1]; first compound 0.253 µM),relative viability ([1]; first compound 0.8 µM),relative viability ([1]; first compound 2.53 µM),relative viability ([1]; first compound 8 µM),relative viability (Veliparib + Decitabine; first compound 0.02 µM),relative viability (Veliparib + Decitabine; first compound 0.06325 µM),relative viability (Veliparib + Decitabine; first compound 0.2 µM),relative viability (Veliparib + Decitabine; first compound 0.6325 µM),relative viability (Veliparib + Decitabine; first compound 2 µM),relative viability ([2]; first compound 0.08 µM),relative viability ([2]; first compound 0.253 µM),relative viability ([2]; first compound 0.8 µM),relative viability ([2]; first compound 2.53 µM),relative viability ([2]; first compound 8 µM)
NCI-H650,1.28,0.983,1.23,0.999,1.2,0.328,0.381,0.353,0.319,0.32,0.309,0.283,0.265,0.278,0.317,0.864,1.03,0.89,0.892,0.888
NCI-H1793,0.819,0.582,0.755,0.661,0.69,,0.344,0.324,0.32,0.248,0.511,0.47,0.445,0.429,0.424,,0.943,0.997,1.08,0.698
201T,1.02,1.02,1.02,1.01,0.973,0.338,0.368,0.371,0.358,0.365,0.886,0.844,0.795,0.795,0.785,0.314,0.349,0.322,0.333,0.324
LK-2,,1.01,1.38,0.996,1.1,,0.821,0.832,0.582,0.699,0.259,0.278,0.273,0.283,0.225,,0.207,0.354,0.353,0.243
A-427,1.1,1.01,1.06,1.06,1.14,0.291,,0.538,0.494,0.501,0.557,0.473,0.593,0.492,0.546,0.923,,0.965,0.907,0.842
LCLC-97TM1,0.263,0.271,0.258,,0.232,,0.226,0.23,0.223,0.229,0.205,0.206,0.237,0.208,0.194,,0.192,0.182,0.191,0.144
HOP-62,1.11,0.928,1.15,0.836,0.785,0.321,0.442,0.431,0.413,0.493,0.221,0.198,0.164,0.197,0.251,0.278,0.454,0.31,0.244,0.35
NCI-H1915,1.03,1.02,0.976,0.898,0.926,0.506,0.545,0.518,0.505,0.559,0.23,0.243,0.267,0.242,0.266,0.441,0.527,0.49,0.485,0.447
NCI-H1437,0.898,0.977,0.98,0.921,0.889,0.283,0.295,0.344,0.366,0.326,0.606,0.526,0.464,0.533,0.497,0.334,0.358,0.319,0.305,0.3
UMC-11,1.01,0.941,1.14,0.947,0.972,,0.361,0.29,0.331,0.343,0.568,0.568,0.476,0.444,0.389,0.568,0.854,0.823,0.793,0.784
HCC-44,0.807,0.648,0.844,0.762,0.803,0.936,0.926,1.01,0.978,0.969,0.941,0.797,0.907,0.857,0.902,0.628,0.665,0.585,0.649,0.664
